Data as given in patent publication US12318373B2, “Methods of treating gastrointestinal stromal tumors” (Deciphera Pharmaceuticals, LLC, priority 2019, dated 2025).

Key:
[1] = Example 8: coadministration with proton-pump inhibitor (pantoprazole), exposure; assay type: in vivo
Method: The effect of a proton-pump inhibitor on the exposure of ripretinib was evaluated.

[2] = Solubility; assay type: physicochemical

Compound: CCn1c(=O)c(-c2cc(NC(=O)Nc3ccccc3)c(F)cc2Br)cc2cnc(NC)cc21 [ripretinib]
- Effect on ripretinib exposure ([1]; 40 mg QD pantoprazole with 150 mg QD ripretinib): did not affect
- Difference in plasma exposure ([1]; ripretinib coadministered with pantoprazole): No clinically significant differences
- Solubility [2]: pH-dependent solubility
